Calls of active or inactive are those of the source.
Columns and labels:
Genome polyprotein = Genome polyprotein (dengue virus type 2, UniProt P29990); experiment: Dengue-2 NS5 methyltransferase inhibitors, primary screen, biochemical, confirmation dose response (AID 588689); type: functional
A-375 = experiment: MITF: Counter assay: A375 proliferation Measured in Cell-Based System Using Plate Reader - 2084-03_Inhibitor_Dose_DryPowder_Activity. [Related pubchem assays (depositor defined):AID488944]; type: functional; conditions: Homo sapiens
[1] = target: T1, Microphthalmia-associated transcription factor (Homo sapiens, UniProt O75030); experiment: TRPM1 promoter luciferase signal decrease, dose response, MITF inhibitor project, cell-based, SK-MEL-5, cherry-picked, set 3 (AID 493073); type: functional
T1 sequence (O75030 whole entry): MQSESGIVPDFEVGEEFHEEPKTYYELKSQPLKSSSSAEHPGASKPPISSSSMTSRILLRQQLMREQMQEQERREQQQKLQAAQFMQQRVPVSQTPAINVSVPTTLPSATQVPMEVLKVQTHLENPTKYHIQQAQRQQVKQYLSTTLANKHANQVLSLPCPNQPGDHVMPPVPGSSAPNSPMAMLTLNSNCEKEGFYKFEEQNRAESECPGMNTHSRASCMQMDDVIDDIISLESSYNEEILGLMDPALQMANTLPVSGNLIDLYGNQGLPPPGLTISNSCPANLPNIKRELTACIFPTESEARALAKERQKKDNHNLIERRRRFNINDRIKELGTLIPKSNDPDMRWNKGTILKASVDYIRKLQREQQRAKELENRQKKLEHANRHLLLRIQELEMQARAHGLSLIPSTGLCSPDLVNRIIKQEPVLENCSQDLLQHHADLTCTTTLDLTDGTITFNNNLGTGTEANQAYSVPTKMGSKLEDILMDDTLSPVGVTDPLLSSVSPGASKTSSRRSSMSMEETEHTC

[2] = target: T2, Sentrin-specific protease 7 (Homo sapiens, UniProt Q9BQF6); type: functional;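 note: Luminescence-based dose-response confirmation of ultra-high-throughput screening hits, measuring inhibition of SENP7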
T2 sequence (Q9BQF6 whole entry): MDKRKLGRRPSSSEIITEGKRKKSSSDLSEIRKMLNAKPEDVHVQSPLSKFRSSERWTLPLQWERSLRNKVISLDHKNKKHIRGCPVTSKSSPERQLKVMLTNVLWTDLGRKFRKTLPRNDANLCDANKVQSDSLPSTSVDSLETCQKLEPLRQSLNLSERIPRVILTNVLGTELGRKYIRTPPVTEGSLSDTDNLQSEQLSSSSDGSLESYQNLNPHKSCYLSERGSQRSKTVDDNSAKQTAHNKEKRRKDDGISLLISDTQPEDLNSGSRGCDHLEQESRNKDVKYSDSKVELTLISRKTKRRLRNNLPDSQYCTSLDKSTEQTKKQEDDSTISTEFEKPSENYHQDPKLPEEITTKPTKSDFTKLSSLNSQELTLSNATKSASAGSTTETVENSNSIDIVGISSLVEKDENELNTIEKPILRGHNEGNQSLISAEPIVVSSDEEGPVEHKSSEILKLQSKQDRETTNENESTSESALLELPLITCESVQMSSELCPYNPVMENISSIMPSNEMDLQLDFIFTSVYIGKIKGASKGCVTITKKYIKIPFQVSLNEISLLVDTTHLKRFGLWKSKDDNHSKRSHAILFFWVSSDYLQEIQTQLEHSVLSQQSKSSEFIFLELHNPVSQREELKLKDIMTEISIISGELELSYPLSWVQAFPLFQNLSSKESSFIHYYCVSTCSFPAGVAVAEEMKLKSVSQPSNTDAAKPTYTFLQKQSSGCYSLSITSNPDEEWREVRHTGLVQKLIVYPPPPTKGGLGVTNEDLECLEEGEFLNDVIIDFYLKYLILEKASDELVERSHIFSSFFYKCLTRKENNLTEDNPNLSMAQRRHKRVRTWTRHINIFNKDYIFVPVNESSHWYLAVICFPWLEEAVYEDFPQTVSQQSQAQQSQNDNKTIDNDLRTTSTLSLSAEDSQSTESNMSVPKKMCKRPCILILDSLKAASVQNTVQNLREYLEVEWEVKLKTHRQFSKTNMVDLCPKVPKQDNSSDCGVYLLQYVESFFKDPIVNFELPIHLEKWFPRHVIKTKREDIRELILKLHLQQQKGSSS

Cytochrome P450 2C9 = Cytochrome P450 2C9 (Homo sapiens, UniProt P11712)
Caspase-3 = target: T3, Caspase-3 (Homo sapiens, UniProt P42574); type: functional;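 note: Dose-response selectivity test against caspase-3 for candidate inhibitors of sentrin-specific proteases (SENPs)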
T3 sequence (P42574 whole entry): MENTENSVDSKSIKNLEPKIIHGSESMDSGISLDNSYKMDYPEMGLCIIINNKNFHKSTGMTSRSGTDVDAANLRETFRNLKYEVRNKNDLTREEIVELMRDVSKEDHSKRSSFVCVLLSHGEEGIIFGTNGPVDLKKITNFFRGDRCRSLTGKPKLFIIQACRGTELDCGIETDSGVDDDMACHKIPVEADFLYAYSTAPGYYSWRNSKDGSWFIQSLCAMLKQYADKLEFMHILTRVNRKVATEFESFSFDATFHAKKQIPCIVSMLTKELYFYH

[3] = target: T4, Sentrin-specific protease 8 (Homo sapiens, UniProt Q96LD8); type: functional
T4 sequence (Q96LD8 whole entry): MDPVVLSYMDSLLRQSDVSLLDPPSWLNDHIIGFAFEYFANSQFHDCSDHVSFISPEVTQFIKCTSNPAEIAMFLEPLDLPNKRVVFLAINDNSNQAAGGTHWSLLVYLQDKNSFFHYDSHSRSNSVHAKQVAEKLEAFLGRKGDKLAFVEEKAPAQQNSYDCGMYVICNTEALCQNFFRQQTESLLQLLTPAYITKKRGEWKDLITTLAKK

[4] = target: T5, Endoribonuclease toxin MazF (Escherichia coli K-12, UniProt P0AE70); experiment: fluorescent RNA oligo signal without MazF, dose response, counter-screen for MazEF activator project, biochemical, fluorescence, single-stranded RNase substrate (AID 588502); type: functional
T5 sequence (P0AE70 whole entry): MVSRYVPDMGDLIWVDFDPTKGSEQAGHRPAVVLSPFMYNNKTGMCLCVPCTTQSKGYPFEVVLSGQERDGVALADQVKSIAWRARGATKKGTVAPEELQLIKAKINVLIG

Sequence of Cytochrome P450 2C9 (P11712 whole entry): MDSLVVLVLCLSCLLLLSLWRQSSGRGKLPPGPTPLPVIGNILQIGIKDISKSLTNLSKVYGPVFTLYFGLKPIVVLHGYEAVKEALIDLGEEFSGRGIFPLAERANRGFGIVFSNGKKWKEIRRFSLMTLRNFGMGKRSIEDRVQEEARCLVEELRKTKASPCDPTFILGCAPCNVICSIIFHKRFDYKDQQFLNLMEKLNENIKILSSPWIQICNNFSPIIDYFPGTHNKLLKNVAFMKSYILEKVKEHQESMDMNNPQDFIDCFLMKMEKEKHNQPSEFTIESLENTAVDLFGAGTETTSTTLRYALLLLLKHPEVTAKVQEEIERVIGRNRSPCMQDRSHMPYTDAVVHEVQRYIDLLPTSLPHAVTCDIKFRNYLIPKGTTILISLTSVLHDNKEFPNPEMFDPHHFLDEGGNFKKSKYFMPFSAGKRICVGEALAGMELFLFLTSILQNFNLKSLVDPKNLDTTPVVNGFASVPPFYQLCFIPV
Sequence of Genome polyprotein (P29990 2492-3391 limits assumed): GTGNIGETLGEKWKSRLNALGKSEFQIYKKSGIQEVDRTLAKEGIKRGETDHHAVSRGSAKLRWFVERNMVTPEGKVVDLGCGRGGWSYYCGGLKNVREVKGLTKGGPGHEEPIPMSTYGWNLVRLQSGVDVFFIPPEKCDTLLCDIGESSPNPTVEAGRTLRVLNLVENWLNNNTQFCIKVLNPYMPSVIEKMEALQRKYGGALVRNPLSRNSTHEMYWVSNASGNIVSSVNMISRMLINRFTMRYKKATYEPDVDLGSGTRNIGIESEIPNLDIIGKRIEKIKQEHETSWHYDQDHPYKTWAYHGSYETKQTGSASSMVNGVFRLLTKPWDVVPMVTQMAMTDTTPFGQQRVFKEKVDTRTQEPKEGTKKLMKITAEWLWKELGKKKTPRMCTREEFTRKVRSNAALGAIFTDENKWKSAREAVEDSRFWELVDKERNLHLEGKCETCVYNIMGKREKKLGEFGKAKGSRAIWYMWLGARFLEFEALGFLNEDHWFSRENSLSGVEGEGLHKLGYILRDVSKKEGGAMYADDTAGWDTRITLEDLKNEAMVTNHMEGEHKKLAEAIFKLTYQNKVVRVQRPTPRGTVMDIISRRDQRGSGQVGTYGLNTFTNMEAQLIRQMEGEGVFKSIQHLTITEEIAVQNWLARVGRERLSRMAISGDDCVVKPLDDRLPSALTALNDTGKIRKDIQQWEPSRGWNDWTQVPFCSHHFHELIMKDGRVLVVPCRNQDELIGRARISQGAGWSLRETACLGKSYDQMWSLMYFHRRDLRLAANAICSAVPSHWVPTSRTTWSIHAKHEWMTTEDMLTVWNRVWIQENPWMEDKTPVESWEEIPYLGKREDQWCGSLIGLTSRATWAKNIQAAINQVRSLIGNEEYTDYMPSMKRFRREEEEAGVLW

Q: For Cc1cccc(NC2=C(NC(=O)c3ccccc3)C(=O)c3ccccc3C2=O)c1, which IC50 (Genome polyprotein) is on record?
A: Its IC50 is 58.4 µM (active).

Q: And the AC50 (A-375)?
A: Its AC50 is 34 µM (active).

Q: And the AC50 [1]?
A: The AC50 was 9.99 µM (active).

Q: For CC(C)=CCC1=C(OCC(=O)O)C(=O)c2ccccc2C1=O, which IC50 [2] is on record?
A: Its IC50 is 3.97 µM (active).

Q: And the AC50 (Cytochrome P450 2C9)?
A: Its AC50 is 3.98 µM (inconclusive).

Q: What about the IC50 (Caspase-3) of the same molecule?
A: Its IC50 is 15 µM (active).

Q: For Cc1[nH][nH]c(=O)c1C(c1c(C)[nH][nH]c1=O)c1cn(Cc2ccccc2Cl)c2ccccc12, which IC50 [3] is on record?
A: Its IC50 is 4.8 µM (active).

Q: What about the EC50 [4] of the same molecule?
A: Its EC50 is > 99 µM (inactive).

Source: ChEMBL document CHEMBL1201862, “PubChem BioAssay data set” (2004)
